This is an account of results in US8796001B2, “Metalloenzyme inhibitor compounds” (Viamet Pharmaceuticals, Inc., priority 2011, dated 2014).

The test system of this assay is Puccinia recondita tritici = Puccinia triticina (PUCCRT). Nature of the assay: Fungicidal activity vs. leaf rust on wheat plants. The note with it: wheat (Yuma) sprayed at 50 ppm, inoculated the following day, rated 7-9 days later, read-out: Puccinia Rating (% Disease Control @ 50 ppm). The class given is in vivo. The text has this:
D. Evaluation of Fungicidal Activity vs. Leaf Rust (Causal Agent Puccinia Recondita Tritici=Puccinia Triticina; Bayer Code PUCCRT)
Each pot contained 3-8 seedlings. These plants were sprayed until wet with the formulated test compounds. The compounds were formulated at 50 ppm in 10 vol. % acetone plus 90 vol. % Triton X water (deionized water 99.99 wt %+0.01 wt % Triton X100), giving a “formulated test compound.” Formulated test compounds were applied to plants using a turn table sprayer fitted with two opposing air atomization nozzles which delivered approximately 1500 L/ha of spray volume. On the following day, the leaves were inoculated with an aqueous spore suspension of Puccinia recondita tritici and the plants were kept in high humidity overnight to permit spores to germinate and infect the leaf. The plants were then transferred to a greenhouse until disease developed on untreated control plants. Disease severity was evaluated 7-9 days later, depending on the speed of disease development.
In each case of Table 3, the Puccinia rating scale is as follows: […]

Turning to `OC(Cn1cnnn1)(c1ccc(F)cc1F)C(F)(F)c1ccc(OCc2ccc(Cl)cc2F)cn1` (centres unmarked) [Compound 1, 1-(5-(4-Chloro-2-fluorobenzyloxy)pyridin-2-yl)-2-(2,4-difluorophenyl)-1,1-difluoro-3-(1H-tetrazol-1-yl)propan-2-ol], the pest or weed control at 50 ppm was in the range of 80 to 100%.
With `OC(Cn1cnnn1)(c1ccc(F)cc1F)C(F)(F)c1ccc(OCc2ccc(F)cc2F)cn1` (centres unmarked) [Compound 2, 1-(5-(2,4-Difluorobenzyloxy)pyridin-2-yl)-2-(2,4-difluorophenyl)-1,1-difluoro-3-(1H-tetrazol-1-yl)propan-2-ol] the figure was 80 to 100%; with `OC(Cn1cnnn1)(c1ccc(F)cc1F)C(F)(F)c1ccc(OCc2cccc(F)c2)cn1` (centres unmarked) [Compound 3, 2-(2,4-Difluorophenyl)-1,1-difluoro-1-(5-(3-fluorobenzyloxy)pyridin-2-yl)-3-(1H-tetrazol-1-yl)propan-2-ol], 80 to 100%.
Next, `N#Cc1ccc(Oc2ccc(C(F)(F)C(O)(Cn3cnnn3)c3ccc(F)cc3F)nc2)cc1` (centres unmarked) [Compound 5, 4-(6-(2-(2,4-Difluorophenyl)-1,1-difluoro-2-hydroxy-3-(1H-tetrazol-1-yl)propyl)pyridin-3-yloxy)benzonitrile]: 80 to 100%; `OC(Cn1cnnn1)(c1ccc(F)cc1F)C(F)(F)c1ccc(Oc2ccc(F)cc2)cn1` (centres unmarked) [Compound 6, 2-(2,4-Difluorophenyl)-1,1-difluoro-1-(5-(4-fluorophenoxy)pyridin-2-yl)-3-(1H-tetrazol-1-yl)propan-2-ol]: 80 to 100%.
With `OC(Cn1cnnn1)(c1ccc(F)cc1F)C(F)(F)c1ccc(Oc2ccc(Cl)cc2)cn1` (centres unmarked) [Compound 7, 1-(5-(4-Chlorophenoxy)pyridin-2-yl)-2-(2,4-difluorophenyl)-1,1-difluoro-3-(1H-tetrazol-1-yl)propan-2-ol] the figure was 80 to 100%.
For the compound `COc1ccc(C(F)(F)C(O)(Cn2cnnn2)c2ccc(F)cc2F)nc1` (centres unmarked) [Compound 8, 2-(2,4-Difluorophenyl)-1,1-difluoro-1-(5-methoxypyridin-2-yl)-3-(1H-tetrazol-1-yl)propan-2-ol], the pest or weed control at 50 ppm lay in the range of 80 to 100%.
Next, `N#Cc1ccc(COc2ccc(C(F)(F)C(O)(Cn3cnnn3)c3ccc(F)cc3F)nc2)cc1` (centres unmarked) [Compound 9, 4-(((6-(2-(2,4-Difluorophenyl)-1,1-difluoro-2-hydroxy-3-(1H-tetrazol-1-yl)propyl)pyridin-3-yl)oxy)methyl)benzonitrile]: 80 to 100%; `N#Cc1ccc(COc2ccc(C(F)(F)C(O)(Cn3cnnn3)c3ccc(F)cc3F)nc2)cc1F` (centres unmarked) [Compound 10, 4-(((6-(2-(2,4-Difluorophenyl)-1,1-difluoro-2-hydroxy-3-(1H-tetrazol-1-yl)propyl)pyridin-3-yl)oxy)methyl)-2-fluorobenzonitrile]: 80 to 100%; `OC(Cn1cnnn1)(c1ccc(F)cc1F)C(F)(F)c1ccc(Oc2ccccc2)cn1` (centres unmarked) [Compound 11, 2-(2,4-Difluorophenyl)-1,1-difluoro-1-(5-phenoxypyridin-2-yl)-3-(1H-tetrazol-1-yl)propan-2-ol]: 80 to 100%.
Next, `OC(Cn1cnnn1)(c1ccc(F)cc1F)C(F)(F)c1ccc(OCC(F)(F)F)cn1` (centres unmarked) [Compound 12, 2-(2,4-Difluorophenyl)-1,1-difluoro-3-(1H-tetrazol-1-yl)-1-(5-(2,2,2-trifluoroethoxy)pyridin-2-yl)propan-2-ol]: 80 to 100%.
With `N#Cc1ccc(CSc2ccc(C(F)(F)C(O)(Cn3cnnn3)c3ccc(F)cc3F)nc2)c(F)c1` (centres unmarked) [Compound 15, 4-(((6-(2-(2,4-Difluorophenyl)-1,1-difluoro-2-hydroxy-3-(1H-tetrazol-1-yl)propyl)pyridin-3-yl)thio)methyl)-3-fluorobenzonitrile] the figure was 40 to 59%; with `N#Cc1ccc(Oc2ccc(C(F)(F)C(O)(Cn3cnnn3)c3ccc(F)cc3F)nc2)cc1F` (centres unmarked) [Compound 17, 4-((6-(2-(2,4-Difluorophenyl)-1,1-difluoro-2-hydroxy-3-(1H-tetrazol-1-yl)propyl)pyridin-3-yl)oxy)-2-fluorobenzonitrile], 80 to 100%; with `OC(Cn1cnnn1)(c1ccc(F)cc1F)C(F)(F)c1ccc(OCc2ccc(OC(F)(F)F)cc2)cn1` (centres unmarked) [Compound 21, 2-(2,4-Difluorophenyl)-1,1-difluoro-3-(1H-tetrazol-1-yl)-1-(5-((4-(trifluoromethoxy)benzyl)oxy)pyridin-2-yl)propan-2-ol], 80 to 100%.
As for `OC(Cn1cnnn1)(c1ccc(F)cc1F)C(F)(F)c1ccc(OCc2ccc(C(F)(F)F)cc2)cn1` (centres unmarked) [Compound 22, 2-(2,4-Difluorophenyl)-1,1-difluoro-3-(1H-tetrazol-1-yl)-1-(5-((4-(trifluoromethyl)benzyl)oxy)pyridin-2-yl)propan-2-ol], the pest or weed control at 50 ppm lay within 80 to 100%.
With `OC(Cn1cnnn1)(c1ccc(F)cc1F)C(F)(F)c1ccc(OCc2cccc(F)c2F)cn1` (centres unmarked) [Compound 23, 1-(5-((2,3-Difluorobenzyl)oxy)pyridin-2-yl)-2-(2,4-difluorophenyl)-1,1-difluoro-3-(1H-tetrazol-1-yl)propan-2-ol] the figure was 80 to 100%; with `OC(Cn1cnnn1)(c1ccc(F)cc1F)C(F)(F)c1ccc(OCc2ccc(C(F)(F)F)cc2F)cn1` (centres unmarked) [Compound 24, 2-(2,4-Difluorophenyl)-1,1-difluoro-1-(5-((2-fluoro-4-(trifluoromethyl)benzyl)oxy)pyridin-2-yl)-3-(1H-tetrazol-1-yl)propan-2-ol], 80 to 100%; with `OC(Cn1cnnn1)(c1ccc(F)cc1F)C(F)(F)c1ccc(OCc2cccc(C(F)(F)F)c2)cn1` (centres unmarked) [Compound 26, 2-(2,4-Difluorophenyl)-1,1-difluoro-3-(1H-tetrazol-1-yl)-1-(5-((3-(trifluoromethyl)benzyl)oxy)pyridin-2-yl)propan-2-ol], 80 to 100%.
With `OC(Cn1cnnn1)(c1ccc(F)cc1F)C(F)(F)c1ccc(OCc2ccc(Cl)c(F)c2)cn1` (centres unmarked) [Compound 27, 1-(5-((4-Chloro-3-fluorobenzyl)oxy)pyridin-2-yl)-2-(2,4-difluorophenyl)-1,1-difluoro-3-(1H-tetrazol-1-yl)propan-2-ol] the figure was 80 to 100%.
With `OC(Cn1cnnn1)(c1ccc(F)cc1F)C(F)(F)c1ccc(OCc2ccc(F)c(F)c2)cn1` (centres unmarked) [Compound 28, 1-(5-((3,4-Difluorobenzyl)oxy)pyridin-2-yl)-2-(2,4-difluorophenyl)-1,1-difluoro-3-(1H-tetrazol-1-yl)propan-2-ol] the figure was 80 to 100%; with `COc1cccc(COc2ccc(C(F)(F)C(O)(Cn3cnnn3)c3ccc(F)cc3F)nc2)c1` (centres unmarked) [Compound 34, 2-(2,4-Difluorophenyl)-1,1-difluoro-1-(5-((3-methoxybenzyl)oxy)pyridin-2-yl)-3-(1H-tetrazol-1-yl)propan-2-ol], 80 to 100%.
As to `OC(Cn1cnnn1)(c1ccc(F)cc1F)C(F)(F)c1ccc(OCc2cc(F)cc(F)c2)cn1` (centres unmarked) [Compound 35, 1-(5-((3,5-Difluorobenzyl)oxy)pyridin-2-yl)-2-(2,4-difluorophenyl)-1,1-difluoro-3-(1H-tetrazol-1-yl)propan-2-ol], the pest or weed control at 50 ppm fell in the range of 80 to 100%.
With `OC(Cn1cnnn1)(c1ccc(F)cc1F)C(F)(F)c1ccc(OCc2ccccn2)cn1` (centres unmarked) [Compound 37, 2-(2,4-Difluorophenyl)-1,1-difluoro-1-(5-(pyridin-2-ylmethoxy)pyridin-2-yl)-3-(1H-tetrazol-1-yl)propan-2-ol] the figure was 80 to 100%; with `OC(Cn1cnnn1)(c1ccc(F)cc1F)C(F)(F)c1ccc(OCC2CC2)cn1` (centres unmarked) [Compound 39, 1-(5-(Cyclopropylmethoxy)pyridin-2-yl)-2-(2,4-difluorophenyl)-1,1-difluoro-3-(1H-tetrazol-1-yl)propan-2-ol], 80 to 100%.
Next, `COc1ccc(COc2ccc(C(F)(F)C(O)(Cn3cnnn3)c3ccc(F)cc3F)nc2)cc1` (centres unmarked) [Compound 41, 2-(2,4-Difluorophenyl)-1,1-difluoro-1-(5-((4-methoxybenzyl)oxy)pyridin-2-yl)-3-(1H-tetrazol-1-yl)propan-2-ol]: 80 to 100%; `CC(C)Oc1ccc(C(F)(F)C(O)(Cn2cnnn2)c2ccc(F)cc2F)nc1` (centres unmarked) [Compound 42, 2-(2,4-Difluorophenyl)-1,1-difluoro-1-(5-isopropoxypyridin-2-yl)-3-(1H-tetrazol-1-yl)propan-2-ol]: 80 to 100%.
`CC(C)COc1ccc(C(F)(F)C(O)(Cn2cnnn2)c2ccc(F)cc2F)nc1` (centres unmarked) [Compound 43, 2-(2,4-Difluorophenyl)-1,1-difluoro-1-(5-isobutoxypyridin-2-yl)-3-(1H-tetrazol-1-yl)propan-2-ol]: the pest or weed control at 50 ppm lay within 80 to 100%.
On to `OC(Cn1cncn1)(c1ccc(F)cc1F)C(F)(F)c1ccc(OCc2cccc(F)c2F)cn1` (centres unmarked) [Compound 45, 1-(5-((2,3-Difluorobenzyl)oxy)pyridin-2-yl)-2-(2,4-difluorophenyl)-1,1-difluoro-3-(1H-1,2,4-triazol-1-yl)propan-2-ol], for which the pest or weed control at 50 ppm lay within 80 to 100%.
In the case of `OC(Cn1cnnn1)(c1ccc(F)cc1F)C(F)(F)c1ccc(OCc2ccccc2F)cn1` (centres unmarked) [Compound 46, 2-(2,4-Difluorophenyl)-1,1-difluoro-1-(5-((2-fluorobenzyl)oxy)pyridin-2-yl)-3-(1H-tetrazol-1-yl)propan-2-ol], the pest or weed control at 50 ppm was 80 to 100%.
